Assay results published in PMC4887402 (Journal of inorganic biochemistry, 2015).

Target: Cytochrome P450 CYP3A4 (Homo sapiens, UniProt P08684)
Experiment: UV-VIS spectral titration
Type: binding

Cytochrome P450 CYP3A4, sequence (P08684 whole entry): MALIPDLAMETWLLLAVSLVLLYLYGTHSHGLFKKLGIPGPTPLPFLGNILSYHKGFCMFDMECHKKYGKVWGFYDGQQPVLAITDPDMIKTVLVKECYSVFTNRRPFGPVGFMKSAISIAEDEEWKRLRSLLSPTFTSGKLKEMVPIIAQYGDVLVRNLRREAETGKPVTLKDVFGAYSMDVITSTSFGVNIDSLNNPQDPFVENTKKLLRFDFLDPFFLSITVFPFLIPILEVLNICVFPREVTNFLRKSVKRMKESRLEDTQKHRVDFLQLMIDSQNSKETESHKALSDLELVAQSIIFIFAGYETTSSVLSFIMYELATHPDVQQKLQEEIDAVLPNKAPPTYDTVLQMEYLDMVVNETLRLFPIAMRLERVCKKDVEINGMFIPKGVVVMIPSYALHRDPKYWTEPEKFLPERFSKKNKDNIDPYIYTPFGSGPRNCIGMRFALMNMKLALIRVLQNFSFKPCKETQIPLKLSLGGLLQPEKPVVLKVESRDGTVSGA

SMILES | Kd [µM]
C[C@]12CC[C@H]3[C@@H]([C@H](C/C=C/C[C@@H]4CC5=CC(=O)CC[C@]5(C)[C@H]5CC[C@]6(C)[C@@H](O)CC[C@H]6[C@H]45)CC4=CC(=O)CC[C@@]43C)[C@@H]1CC[C@@H]2O [trans-TST2] | 8
C[C@]12CC[C@H]3[C@@H]([C@H](C/C=C\C[C@@H]4CC5=CC(=O)CC[C@]5(C)[C@H]5CC[C@]6(C)[C@@H](O)CC[C@H]6[C@H]45)CC4=CC(=O)CC[C@@]43C)[C@@H]1CC[C@@H]2O [cis-TST2] | 0.3
